Consider 24 compounds from ChEMBL document CHEMBL2016454, “Design and synthesis of dihydrobenzofuran amides as orally bioavailable, centrally active γ-secretase modulators” (Bioorg Med Chem Lett, 2012).

Each structure is given as a SMILES string. Activity calls are given as the source filed them.

The test system of data set [1] is MDR1 (P-gp), human. The data set is described as follows: Efflux ratio of permeability in MDCK cells over expressing human MDR1. In kind it is ADME, cell-based, Canis lupus familiaris. The conditions noted are these: dog.
Data set [2] can be described thus: Intrinsic clearance in human liver microsomes. It counts as ADME, Microsome. The conditions noted are these: read-out: CLH. On the technique in general: Microsomes from liver hold many membrane-bound enzymes, among them those of drug oxidation.
Data set [3] is described as follows: Inhibition of gamma secretase expressed in CHO cells expressing APP assessed as amyloid beta42 production. It counts as cell-based.
Data set [4] is described as follows: Volume of distribution at steady state in rat. In kind it is ADME, organism-based. The conditions noted are these: in vivo, read-out: Vdss.
Data set [5] is described as follows: Clearance in rat. In kind it is ADME, organism-based. The note with it: in vivo.
Data set [6] can be described thus: Ratio of fraction unbound in Hartley guinea pig brain to IC50 of gamma secretase expressed in CHO cells expressing APP assessed as amyloid beta42 production. In kind it is ADME, cell-based.
Data set [7] can be described thus: Fraction unbound in Hartley guinea pig brain at 100 mg/kg, po after 4 hrs post dose […]. In kind it is ADME, organism-based, Cavia porcellus. Details: dose 100 mg/kg, route oral.
Data set [8] can be described thus: Half life in rat. It counts as ADME, organism-based. The note with it: in vivo.
In data set [9] the test system is Cavia porcellus. The data set is described as follows: Antialzheimer activity in Hartley guinea pig assessed as effect on total amyloid beta level in brain at 100 mg/kg, po after 4 hrs. In kind it is functional, organism-based. Details: dose 100 mg/kg.
Data set [10] can be described thus: Total plasma concentration in Hartley guinea pig at 100 mg/kg, po after 4 hrs post dose. In kind it is ADME, organism-based, Cavia porcellus. Set-up: dose 100 mg/kg, route oral.
Data set [11] concerns Cavia porcellus. The data set is described as follows: Antialzheimer activity in Hartley guinea pig assessed as effect on total amyloid beta level in plasma at 100 mg/kg, po after 4 hrs. Details: dose 100 mg/kg. It counts as functional, organism-based.
The target of data set [12] is Gamma-secretase. Nature of the data set: Inhibition of gamma-secretase expressed in human HEK293 NdeltaE cells assessed as cleavage of Notch. It counts as cell-based.
In data set [13] the test system is Cavia porcellus. Nature of the data set: Antialzheimer activity in Hartley guinea pig assessed as reduction of amyloid beta40 level in brain at 100 mg/kg, po after 4 hrs. In kind it is functional. Set-up: scale not given: the % may be the effect or the level left.
The nature of data set [14]: Oral bioavailability in rat. In kind it is ADME, organism-based. The note with it: in vivo.
Data set [15] concerns Cavia porcellus. The data set is described as follows: Antialzheimer activity in Hartley guinea pig assessed as reduction of amyloid beta42 level in brain at 100 mg/kg, po after 4 hrs. Set-up: scale not given: the % may be the effect or the level left. It counts as functional.
Data set [16] in a line: Fraction unbound in Hartley guinea pig plasma at 100 mg/kg, po after 4 hrs post dose. It counts as ADME, organism-based, Cavia porcellus. Set-up: dose 100 mg/kg, route oral.
Data set [17] is described as follows: Drug uptake in Hartley guinea pig brain at 100 mg/kg, po after 4 hrs post dose. The note with it: read-out: Drug uptake. In kind it is ADME, organism-based, Cavia porcellus. Details: dose 100 mg/kg, route oral.
Data set [18] relates to Cavia porcellus. The data set is described as follows: Antialzheimer activity in Hartley guinea pig assessed as increase of amyloid beta38 level in plasma at 100 mg/kg, po after 4 hrs. It counts as functional.
In data set [19] the test system is Brain. The data set is described as follows: Ratio of drug level in p-gp knock-out mouse brain to wild type mouse brain. It counts as ADME, tissue-based. The conditions noted are these: in vivo.
For data set [20], the target named is Cytochrome P450 3A4 (Homo sapiens, UniProt P08684). The data set is described as follows: Inhibition of CYP3A4. It counts as ADME.
Sequence of Cytochrome P450 3A4 (P08684 whole entry): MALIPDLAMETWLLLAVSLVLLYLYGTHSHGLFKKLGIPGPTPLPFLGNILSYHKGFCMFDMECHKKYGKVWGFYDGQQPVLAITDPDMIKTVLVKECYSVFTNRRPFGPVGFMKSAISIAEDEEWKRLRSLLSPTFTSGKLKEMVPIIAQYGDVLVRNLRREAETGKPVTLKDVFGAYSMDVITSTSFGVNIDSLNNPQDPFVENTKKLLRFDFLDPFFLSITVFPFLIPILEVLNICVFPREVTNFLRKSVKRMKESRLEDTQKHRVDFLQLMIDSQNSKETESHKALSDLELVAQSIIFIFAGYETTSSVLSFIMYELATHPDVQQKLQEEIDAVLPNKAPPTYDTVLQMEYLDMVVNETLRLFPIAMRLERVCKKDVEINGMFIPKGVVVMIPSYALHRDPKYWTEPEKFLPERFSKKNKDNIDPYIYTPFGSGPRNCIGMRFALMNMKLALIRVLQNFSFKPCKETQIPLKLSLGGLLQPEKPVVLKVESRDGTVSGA
The target of data set [21] is Cytochrome P450 2D6 (Homo sapiens, UniProt P10635). The data set is described as follows: Inhibition of CYP2D6. In kind it is ADME.
Sequence of Cytochrome P450 2D6 (P10635 whole entry): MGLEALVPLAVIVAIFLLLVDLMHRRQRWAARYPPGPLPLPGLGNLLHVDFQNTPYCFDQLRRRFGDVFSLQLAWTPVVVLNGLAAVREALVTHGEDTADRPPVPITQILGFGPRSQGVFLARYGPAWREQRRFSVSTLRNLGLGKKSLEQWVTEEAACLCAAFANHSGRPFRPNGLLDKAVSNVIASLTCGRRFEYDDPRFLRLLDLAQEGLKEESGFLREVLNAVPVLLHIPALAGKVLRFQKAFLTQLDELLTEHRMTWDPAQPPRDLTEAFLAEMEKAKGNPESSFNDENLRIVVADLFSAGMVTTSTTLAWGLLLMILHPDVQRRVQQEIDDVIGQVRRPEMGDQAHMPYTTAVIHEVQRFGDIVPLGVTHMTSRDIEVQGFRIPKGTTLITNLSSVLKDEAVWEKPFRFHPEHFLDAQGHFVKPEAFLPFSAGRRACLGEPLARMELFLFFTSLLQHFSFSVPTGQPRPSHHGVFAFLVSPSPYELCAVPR

A word on the efflux ratio: it is the permeability from basolateral to apical divided by that in the opposite direction, in the common usage. As a reminder, the IC50 is the midpoint of a concentration-inhibition curve. For the compound `COc1cc(C(=O)NCC2(c3ccc(F)cc3)CCC2)ccc1-n1cnc(C)c1`, in data set [1], the efflux ratio was 1.6. Besides, in [2], the microsomal CLint is 112 µL/min/mg. Further, the half-inhibitory concentration (IC50) in data set [3] stood at 309 nM.
Take `CCOc1cc(C)c(CN(C(=O)c2ccc(-n3cnc(C)c3)c(OC)c2)C2CC2)cc1C(C)C`: the microsomal CLint in [2] was found to be 122 µL/min/mg. Moreover, the half-maximal inhibitory concentration (IC50) in [3] worked out at 114 nM.
With `COc1nc(C(=O)NC2COc3ccc(Cl)c(C)c32)ccc1-n1cnc(C)c1` (racemic), in data set [1], the efflux ratio is 1.8. For the same compound, in data set [2], the microsomal CLint was determined as 49.3 µL/min/mg. Besides, the IC50 in data set [3] turned out to be 234 nM.
For the compound `COc1cc(C(=O)NC2COc3cccc(Cl)c32)ccc1-n1cnc(C)c1` (racemic), in data set [1], the efflux ratio came out at 1.7. Besides, the microsomal CLint in [2] was determined as 97.3 µL/min/mg. The IC50 in data set [3] is 1660 nM.
The matching figures for `COc1cc(C(=O)N2CC[C@](O)(COc3ccccc3C(F)(F)F)C2)ccc1-n1cnc(C)c1`: 24, 124 µL/min/mg and 256 nM.
The matching figures for `COc1cc(/C=C2\CCCN([C@@H](C)c3ccc(F)cc3)C2=O)ccc1-n1cnc(C)c1`: 2.2, 37.1 µL/min/mg and 143 nM.
As for `COc1cc(C(=O)N[C@H]2CCc3ccc(Cl)cc32)ccc1-n1cnc(C)c1`, the efflux ratio in [1] is 0.5. Besides, the microsomal CLint in [2] was determined as 32.7 µL/min/mg. For the same compound, in [3], the half-inhibitory concentration (IC50) was 605 nM.
On the same counts, the results for `COc1cc(C(=O)NCc2cccc(C(F)(F)F)c2)ccc1-n1cnc(C)c1` are 1.8, 29.2 µL/min/mg and 659 nM.
The matching figures for `COc1cc(C(=O)NCc2cc(-c3cccc(Cl)c3)no2)ccc1-n1cnc(C)c1`: 3.8, 30 µL/min/mg and 330 nM.
`COc1cc(C(=O)NC2COc3cc(Cl)ccc32)ccc1-n1cnc(C)c1` (racemic): the microsomal CLint in [2] is 35.6 µL/min/mg. In addition, the IC50 in [3] amounted to 1960 nM.
Regarding `COc1cc(C(=O)N2CC[C@H](Oc3ccccc3C(F)(F)F)C2)ncc1-n1cnc(C)c1`, in [3], the IC50 was determined as 5330 nM.
Turning to `COc1cc(C(=O)NCc2nnc(-c3cccc(Cl)c3)o2)ccc1-n1cnc(C)c1`, the efflux ratio in data set [1] came out at 8.7. The IC50 in [3] stood at 1460 nM.
Regarding `COc1cc(C(=O)N[C@H]2COc3c(Cl)cccc32)ccc1-n1cnc(C)c1`, in data set [2], the microsomal CLint amounted to 19.4 µL/min/mg. Moreover, in data set [3], the half-inhibitory concentration (IC50) is 1690 nM.
A word on the clearance: it is a measure of how efficiently the substance is removed, as volume per time. A word on the fraction unbound: it is the share of the substance not bound to proteins or other matrix. In general, half-life refers to the time needed for the level to fall by half in the phase considered. The bioavailability is the share of a dose that reaches the circulation, judged against a reference dose that is usually intravenous. As to `COc1cc(C(=O)N[C@H]2COc3ccc(Cl)cc32)ccc1-n1cnc(C)c1`, in data set [1], the efflux ratio was 1.6. In addition, the Vd in data set [4] turned out to be 1.87 L. This compound also displayed a clearance in data set [5] of 9.63 mL/min/kg. For the same compound, in data set [6], the Ratio is 2.1. Further, the fraction unbound at 4 h in data set [7] worked out at 0.018; in [16] it was 0.088. In addition, the microsomal CLint in [2] was 22.3 µL/min/mg. Further, the half-life in data set [8] was 2.43 h. In addition, the outcome in data set [9] and in data set [11] was inactive. Moreover, the concentration at 4 h in data set [10] came to 5120 ng/mL; in data set [17], 22100 ng/g. The 50% inhibitory concentration (IC50) in data set [12] was greater than 50000 nM; in [3], 521 nM. The Activity in [13] turned out to be 32%; in data set [15], 57%; in [18] it was 72%. In data set [14], the bioavailability stood at 100%.
Take `COc1cc(C(=O)N2CC[C@H](Oc3ccccc3C(F)(F)F)C2)ccc1-n1cnc(C)c1`: the efflux ratio in data set [1] was 2.5. Also, in [2], the microsomal CLint turned out to be 50.8 µL/min/mg. Moreover, in [3], the IC50 is 320 nM.
On the same counts, the results for `COc1nc(C(=O)N[C@H]2COc3ccc(Cl)cc32)ccc1-n1cnc(C)c1` are 1.3, 28 µL/min/mg and 343 nM.
On the same counts, the results for `COc1cc(C(=O)N[C@@H](C)c2ccc(F)cc2)ccc1-n1cnc(C)c1` are 1.1, 12.6 µL/min/mg and 4400 nM.
In the case of `COc1nc(C(=O)N2CC[C@H](Oc3ccccc3C(F)(F)F)C2)cnc1-n1cnc(C)c1`, the 50% inhibitory concentration (IC50) in [3] turned out to be 535 nM.
Take `COc1cc(C(=O)N2CC[C@H](Oc3ccccc3C(F)(F)F)C2)cnc1-n1cnc(C)c1`: the efflux ratio in data set [1] turned out to be 1.6. For the same compound, the IC50 in data set [3] is 3440 nM.
Regarding `COc1nc(C(=O)N2CC[C@H](Oc3ccccc3C(F)(F)F)C2)ccc1-n1cnc(C)c1`, the efflux ratio in data set [1] turned out to be 1.1. Besides, the microsomal CLint in data set [2] is 48.7 µL/min/mg. Besides, the IC50 in [3] is 208 nM.
With `COc1ccc2c(c1)[C@@H](NC(=O)c1ccc(-n3cnc(C)c3)c(OC)c1)CO2`, in data set [2], the microsomal CLint worked out at 16.9 µL/min/mg. The IC50 in data set [3] is 2990 nM.
As for `COc1cc(C(=O)NCc2cnc(-c3ccccc3)s2)ccc1-n1cnc(C)c1`, the efflux ratio in [1] was determined as 3.2. The microsomal CLint in [2] amounted to 29.3 µL/min/mg. Further, in data set [19], the Ratio is on record as 5. In data set [3], the concentration for half-maximal inhibition (IC50) was found to be 332 nM.
For `COc1cc(C(=O)NC2COc3ccc(F)cc32)ccc1-n1cnc(C)c1` (racemic), the microsomal CLint in data set [2] came to 21.8 µL/min/mg. In addition, in [3], the concentration for half-maximal inhibition (IC50) is 1560 nM.
With `COc1nc(C(=O)N[C@H]2COc3ccc(Cl)c(F)c32)ccc1-n1cnc(C)c1`, the efflux ratio in data set [1] came out at 1.4. For the same compound, in [4], the Vd amounted to 1.78 L. The clearance in [5] came out at 31.4 mL/min/kg. In addition, the Ratio in [6] was determined as 0.31. The values for the fraction unbound at 4 h in data set [7] and in data set [16] were 0.0097 and 0.078, respectively. In addition, in [2], the microsomal CLint turned out to be 30 µL/min/mg. For the same compound, the half-life in data set [8] was 0.64 h. For the same compound, the concentration at 4 h in data set [10] came to 1290 ng/mL; in [17], 3710 ng/g. Besides, the IC50 is greater than 50000 nM in [12], greater than 30000 nM in [20], 188 nM in data set [3] and greater than 30000 nM in data set [21]. In addition, the results for the Activity in data set [13] and in data set [15] were 16% and 36%, respectively. The same compound registered a bioavailability in [14] of 51%.
